Assay [1] deals with Plodia interpunctella neonatal larvae. Kind of assay: Bioassay chamber choice test of larval attraction, neonatal larvae. Format: in vivo. The settings on record: serially diluted, bioassayed over the range of 16 pg to 500 pg on 3MM pad; FIGS. 7 and 8. The source says:
(§1) To isolate the attractant, the inventors bioassayed multiple materials that potentially comprised effective attractants. The bioassay chamber 10 was comprised of a Lincoln Wear-Ever (Fort Wayne, Ind.) baking pan (No. 9002) having the dimensions of 65 cm long, 45 cm wide and 2.5 cm high. A similarly sized Carb-x plastic top 12 (Rubbermaid Commercial Products Inc., Winchester, Va.) was modified for this application. (Note that FIG. 1 is a (top) plan view so that only the Carb-x plastic top 12 of the bioassay chamber is shown.)
The rows of three holes were ˜8 cm from the outer edge at the ends and ˜10 cm from the outer edge on the two sides, which spaced the three holes ˜12.5 cm apart, center to center. […]
Plodia larvae used in this study were reared on a standardized Plodia diet (Silhacek and Miller, 1972) at 30° C., 70% r.h. and a 16L:8D photoperiod as described previously (Silhacek et al, 2003) using eggs collected over a 1 h interval during the 2 h period preceding the scotophase. […] The samples were then removed, mixed with Plodia diet and the larvae counted after two days of additional growth.
In the first set of tests, the relative attractiveness of the three major, commercially available kernel tissue fractions of wheat were assessed. […]

Assay [2] relates to Plodia interpunctella larvae (0.6 mg penultimate instar to mid-last instar). Kind of assay: Bioassay chamber choice test of larval attraction, older larvae (early penultimate, newly molted last and mid-last instar). It is filed as in vivo.
Source text: as §1
The rows of three holes were ˜8 cm from the outer edge at the ends and ˜10 cm from the outer edge on the two sides, which spaced the three holes ˜12.5 cm apart, center to center. A 3.0 cm diameter hole 16 was drilled in the center of the top 12 to accept a bulkhead fitting 18 (# 16422, United States Plastic Corp., Lima, Ohio) complete with a right angle connection and a serrated vacuum hose 20. During the bioassay process, air was drawn into the chamber 10 through the six air inlet holes 14 and removed from the chamber 10 through the fitting 18 and vacuum hose 20 in the direction of the arrow 22.
Before each bioassay, the chambers 10 were washed with a dilute solution of Micro-90 detergent (International Products Corp, Burlington, N.J.), rinsed 3 times with tap water, 1 time with distilled water, 1 time with MeOH and air dried. Test samples were placed in flat polypropylene weigh boats. An individual sample was positioned at each end of the chamber 10 under the middle air inlets.
The six air inlet holes 14 were fitted with syringe ports (Part # MTL230-6, Value Plastics, Inc., Fort Collins, Colo.) and six 10 cc syringes 24 filled with activated charcoal were affixed. Low-density foam weather strip (6.3 mm thick×12.7 mm wide, not shown in FIG. 1) was attached along the four edges of the top 12 to form an airtight seal when placed on the bottom pan and tightened together with four Sparco Binder Clips, # 87010 (2″ wide, 1″ capacity) 26. A vacuum means (not shown) was attached to the vacuum hose 20 was adjusted to give an exit flow of ˜53 cc/min or one chamber volume (˜2.41) exchange every 45 min during the bioassay.
In addition to neonates, three other age groups of larvae were selected from the standardized cultures for bioassay to determine if they were attracted to the wheat grain and its components. These groups included newly molted penultimate instar (0.6±0.1 mg), newly molted last instar (3.2±0.2 mg) and mid-last instar (7.8±0.8 mg) (see Silhacek and Miller, 1972). In these assays, 10 larvae of the specified age, stage and weight range were transferred to the 16 mm sample cup at the beginning of the scotophase and immediately placed at the release point in the equilibrated bioassay chamber. The cover was secured to the chamber bottom and the larvae were given three hours to select the sample of choice and then the larvae on each sample were counted.
In the first set of tests, the relative attractiveness of the three major, commercially available kernel tissue fractions of wheat were assessed. The tissues were crude bran (Flint River Mills, Bainbridge, Ga.), Kretschmer's toasted wheat germ (Quaker Oats Co., Chicago, Ill.) and endosperm (organically grown, unbleached, unenriched all-purpose flour, Wards Super Market, Gainesville, Fla.).
The attractiveness of whole kernel wheat volatiles was examined by suspending a packet of whole wheat in the air stream entering the bioassay chamber over a sample of NASE. […]

As to `CCCCCc1ccco1` [2-pentyl furan], in assay [1], the attractancy to neonates entry is “attractive at all levels tested between 32 and 500 pg”. Moreover, the “attraction of older larvae at 31 pg” value in assay [2] (31 pg on 3MM scintillation pad, three older age groups) is “Moderate but not significant attraction”. For the same molecule, the “attraction of older larvae at 250-500 pg” value in assay [2] (250-500 pg, some larvae captured in non-attractive NASE sample) is “Strong attraction”. In assay [2] (all larval stages of Plodia), the “attraction of all larval stages when bioassayed” value was “attracted to picogram quantities”. Also, the “amount range of peak attraction of older larvae” value in assay [2] (three older age groups, amount on 3MM pad) is 62.5 to 125 pg. The “larval attraction by stage of development” value in assay [2] (through the middle (7.0-8.5 mg) of the final larval instar) is “strong”.

For the molecule `CCCCCC=O` [Hexanal, reference compound], the attractancy to neonates entry in assay [1] is “not attractive”.

(Values after patent US8088366B2, “Attractant for Indian meal moth larve” (The United States of America, as represented by the …, priority 2009, dated 2012).)
